The text below walks through data of ChEMBL document CHEMBL5233255, “Natural and nature-inspired stilbenoids as antiviral agents” (Eur J Med Chem, 2020).

Type in all cases: functional, organism-based
For experiment [1], the system named is Human alphaherpesvirus 1. Nature of the experiment: Antiviral activity against HSV-1 KOS infected in African green monkey Vero cells incubated for 2 days by plaque reduction assay. Particulars: Human alphaherpesvirus 1, KOS, 48 h. Background: Plaques are areas of infected cells; plaque reduction assays count them against a control.
Experiment [2] deals with Human alphaherpesvirus 1. Nature of the experiment: Antiviral activity against HSV-1 7401H infected in African green monkey Vero cells incubated for 2 days by plaque reduction assay. The following applies: Human alphaherpesvirus 1, 7401H.
The subject of experiment [3] is Human alphaherpesvirus 2. Nature of the experiment: Antiviral activity against HSV-2 Baylor 186 infected in African green monkey Vero cells incubated for 2 days by plaque reduction assay. Particulars: Human alphaherpesvirus 2, Baylor 186, Vero, 48 h.

Values after ≈ are worked out from the molar mass of the structure shown.

As usually defined, the IC50 is the concentration that gives 50% inhibition. `Oc1cc(O)cc(/C=C/c2ccc(O)cc2O)c1` [OXYRESVERATROL]: the IC50 amounted to 24 µg/mL (≈ 98.3 µM) in experiment [1], 19.8 µg/mL (≈ 81.1 µM) in experiment [2] and 18.7 µg/mL (≈ 76.6 µM) in experiment [3].
